According to ChEMBL document CHEMBL1132043, “4-N-linked-heterocyclic piperidine derivatives with high affinity and selectivity for human dopamine D4 receptors” (Bioorg Med Chem Lett, 1999):
pKi: −log10 of the molar value.

Tests used:
Assay in all cases: biochemical
D(3) dopamine receptor = D(3) dopamine receptor (Homo sapiens, UniProt P35462)
Description: Displacement of [3H]spiperone from human Dopamine receptor D3 expressed in HEK293 cells

D(4) dopamine receptor = molecular target: T1, D(4) dopamine receptor (Homo sapiens, UniProt P21917)
T1 sequence (P21917 whole entry): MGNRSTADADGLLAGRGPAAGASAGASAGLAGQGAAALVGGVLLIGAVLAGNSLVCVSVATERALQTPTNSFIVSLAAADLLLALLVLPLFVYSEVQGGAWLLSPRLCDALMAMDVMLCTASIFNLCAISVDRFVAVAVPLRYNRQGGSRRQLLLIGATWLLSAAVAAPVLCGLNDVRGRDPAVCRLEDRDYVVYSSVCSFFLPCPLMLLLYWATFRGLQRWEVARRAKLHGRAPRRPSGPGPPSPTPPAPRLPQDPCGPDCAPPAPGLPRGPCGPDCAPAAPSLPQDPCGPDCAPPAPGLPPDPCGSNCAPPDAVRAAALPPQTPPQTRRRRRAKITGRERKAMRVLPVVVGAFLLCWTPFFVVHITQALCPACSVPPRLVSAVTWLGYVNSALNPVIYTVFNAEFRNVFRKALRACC
Description: Displacement of [3H]spiperone from human Dopamine receptor D4 expressed in HEK293 cells

D(2) dopamine receptor = D(2) dopamine receptor (Homo sapiens, UniProt P14416)
Sequence of D(2) dopamine receptor (P14416 whole entry): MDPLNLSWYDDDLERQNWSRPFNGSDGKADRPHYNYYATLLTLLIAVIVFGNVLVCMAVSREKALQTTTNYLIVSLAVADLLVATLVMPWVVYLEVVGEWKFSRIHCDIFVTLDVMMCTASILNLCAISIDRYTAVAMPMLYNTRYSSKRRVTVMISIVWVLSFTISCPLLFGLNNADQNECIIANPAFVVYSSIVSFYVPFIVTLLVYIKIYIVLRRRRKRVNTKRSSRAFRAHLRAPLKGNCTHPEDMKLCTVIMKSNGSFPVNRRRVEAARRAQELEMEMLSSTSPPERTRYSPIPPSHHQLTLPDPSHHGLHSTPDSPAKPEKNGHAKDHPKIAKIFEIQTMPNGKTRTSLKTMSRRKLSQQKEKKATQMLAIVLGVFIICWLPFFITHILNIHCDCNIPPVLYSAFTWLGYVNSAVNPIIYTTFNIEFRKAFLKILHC
Description: Displacement of [3H]spiperone from human Dopamine receptor D2 expressed in CHO cells

Sequence of D(3) dopamine receptor (P35462 whole entry): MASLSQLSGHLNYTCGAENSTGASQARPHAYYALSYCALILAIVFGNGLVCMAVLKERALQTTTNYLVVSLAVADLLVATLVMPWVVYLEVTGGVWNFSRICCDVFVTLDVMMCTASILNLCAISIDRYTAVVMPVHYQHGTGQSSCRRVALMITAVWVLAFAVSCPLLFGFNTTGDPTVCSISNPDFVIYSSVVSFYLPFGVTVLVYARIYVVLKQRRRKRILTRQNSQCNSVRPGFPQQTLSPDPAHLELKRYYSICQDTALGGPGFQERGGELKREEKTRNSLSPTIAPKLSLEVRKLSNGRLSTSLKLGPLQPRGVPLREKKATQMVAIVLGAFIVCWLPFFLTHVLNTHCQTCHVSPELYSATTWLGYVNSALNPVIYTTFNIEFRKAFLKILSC

| pKi (D(3) dopamine receptor) | pKi (D(4) dopamine receptor) | pKi (D(2) dopamine receptor) | Structure (SMILES) |
| --- | --- | --- | --- |
| 5.52 | 6.85 | 6.51 | Cc1cc(-c2ccccc2)n(C2CCN(Cc3ccccc3)CC2)n1 |
| 7.55 | 9.41 | 8.21 | Cc1nn(C2CCN(Cc3ccccc3)CC2)cc1-c1ccccc1 |
| 6.09 | 7.82 | 6.29 | c1ccc(CN2CCC(n3nccc3-c3ccccc3)CC2)cc1 |
| < 5.36 | 5.92 | < 5.74 | c1ccc(CN2CCC(n3nnnc3-c3ccccc3)CC2)cc1 |
| 5.36 | 8.28 | < 5.77 | Cc1c(-c2ccccc2)cnn1C1CCN(Cc2cccc(C#N)c2)CC1 |
| 6.35 | 8.60 | 6.85 | Cc1c(-c2ccccc2)cnn1C1CCN(Cc2ccccc2)CC1 |
| 6.09 | 8.51 | 6.43 | Cc1c(-c2ccccc2)cnn1C1CCN(Cc2cccc(Cl)c2)CC1 |
| 5.85 | 7.57 | 5.96 | c1ccc(CN2CCC(n3nnc(-c4ccccc4)n3)CC2)cc1 |
| 6.92 | 8.51 | 7.82 | Cc1nn(C2CCN(Cc3cccc(Cl)c3)CC2)cc1-c1ccccc1 |
| 6.35 | 8.33 | 7.05 | Cc1c(-c2ccccc2)n[nH]c1C1CCN(Cc2ccccc2)CC1 |
| 6.59 | 8.92 | 7.82 | Cc1nn(C2CCN(Cc3cccc(C#N)c3)CC2)cc1-c1ccccc1 |
| 5.60 | 7.77 | 5.80 | Cc1c(-c2ccccc2)nnn1C1CCN(Cc2ccccc2)CC1 |
| 6.13 | 7.40 | 6.35 | c1ccc(CN2CCC(n3cnc(-c4ccccc4)c3)CC2)cc1 |
| 5.89 | 7.49 | 6.34 | c1ccc(CN2CCC(n3cc(-c4ccccc4)nn3)CC2)cc1 |
| 5.66 | 7.74 | 5.92 | Cc1nnn(C2CCN(Cc3ccccc3)CC2)c1-c1ccccc1 |
